Measurements reported in patent US10294202B2, “Pyrrolidinones as herbicides” (FMC Corporation, priority 2013, dated 2019).

Columns and labels:
barnyardgrass [1] = experiment: Test B flooded paddy test; format: in vivo, Echinochloa crus-galli; conditions: 500 g ai/ha, Flood; scale of 0 to 100 where 0 is no effect and 100 is complete control
Summary of the method: (§1)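 Plants were grown to the 2-leaf stage, then pots were flooded to 3 cm above the soil and compound was applied directly into the paddy water, with that depth held throughout. After 13 to 15 days in a greenhouse, injury was rated visually against untreated controls on a 0 to 100 scale (100 = complete control).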

ducksalad = experiment: Test B flooded paddy test; format: in vivo, Heteranthera limosa; conditions: 500 g ai/ha, Flood; scale of 0 to 100 where 0 is no effect and 100 is complete control
Summary of the method: as §1

blackgrass = experiment: Test A postemergence herbicide test; format: in vivo, Alopecurus myosuroides
Summary of the method: (§2)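 Ratings compare treated with untreated plants roughly 10 days after a postemergence application made at the one- to two-leaf stage. Scoring uses 0–100, where 0 means no effect and 100 complete control.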

rice = experiment: Test B flooded paddy test; format: in vivo, Oryza sativa; conditions: 500 g ai/ha, Flood; scale of 0 to 100 where 0 is no effect and 100 is complete control
Summary of the method: as §1

wheat = experiment: Test A pre-/postemergence herbicide test; format: in vivo, Triticum aestivum; conditions: Postemergence
Summary of the method: (§3)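 Greenhouse pot test with pre- and postemergence application of surfactant-containing solvent formulations. Postemergence plants were 2–10 cm, one- to two-leaf stage. Response scored visually after ~10 days, 0 (no effect) to 100 (complete control).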

corn = experiment: Test A pre-/postemergence herbicide test; format: in vivo, Zea mays; conditions: Postemergence
Summary of the method: as §3

pigweed = experiment: Test A pre-/postemergence herbicide test; format: in vivo, Amaranthus retroflexus
Summary of the method: as §3

ryegrass, Italian = experiment: Test A pre-/postemergence herbicide test; format: in vivo, Lolium multiflorum
Summary of the method: as §3

ragweed = experiment: Test A pre-/postemergence herbicide test; format: in vivo, Ambrosia elatior
Summary of the method: as §3

sedge, umbrella = experiment: Test B flooded paddy test; format: in vivo, Cyperus difformis; conditions: 500 g ai/ha, Flood; scale of 0 to 100 where 0 is no effect and 100 is complete control
Summary of the method: as §1

kochia = experiment: Test A pre-/postemergence herbicide test; format: in vivo, Kochia scoparia
Summary of the method: as §3

barnyardgrass [2] = experiment: Test A pre-/postemergence herbicide test; format: in vivo, Echinochloa crus-galli
Summary of the method: as §3

giant foxtail = experiment: Test A pre-/postemergence herbicide test; format: in vivo, Setaria faberii
Summary of the method: as §3

galium = experiment: Test A postemergence herbicide test; format: in vivo, Galium aparine
Summary of the method: as §2

[3] = 125 g ai/ha, visual rating on 0 to 100 scale (0 no effect, 100 complete control), approx. 10 days
[4] = 500 g ai/ha, 0 to 100 scale (0 no effect, 100 complete control)
[5] = Postemergence, 125 g ai/ha, visual rating on 0 to 100 scale (0 no effect, 100 complete control), approx. 10 days
[6] = Postemergence, 500 g ai/ha, 0 to 100 scale (0 no effect, 100 complete control)
[7] = Preemergence, 125 g ai/ha, 0 to 100 scale where 0 is no effect and 100 is complete control
[8] = Preemergence, 500 g ai/ha, visual rating on 0 to 100 scale (0 no effect, 100 complete control)

O=C1NCC(c2cccc(Br)c2)C1C(=O)Nc1ccccc1Cl (stereo not drawn) [Compound 311]
Plant response rating, Barnyardgrass (barnyardgrass [1]): 50
Plant response rating, Ducksalad (ducksalad): 98
Plant response rating, Blackgrass (blackgrass; [3]): 0
Plant response rating, Blackgrass (blackgrass; [4]): 30
Plant response rating, Rice (rice): 0
Plant response rating, Wheat (wheat; [3]): 0
Plant response rating, Wheat (wheat; [4]): 0
Plant response rating, Corn (corn; [3]): 0
Plant response rating, Corn (corn; [4]): 0
Plant response rating, Pigweed (pigweed; [5]): 0
Plant response rating, Pigweed (pigweed; [6]): 0
Plant response rating, Pigweed (pigweed; [7]): 0
Pigweed plant response rating (pigweed; [8]): 0
Plant response rating, Ryegrass, Italian (ryegrass, Italian; [5]): 0
Plant response rating, Ryegrass, Italian (ryegrass, Italian; [6]): 0
Plant response rating, Ryegrass, Italian (ryegrass, Italian; [7]): 0
Ryegrass, Italian plant response rating (ryegrass, Italian; [8]): 0
Plant response rating, Ragweed (ragweed; [5]): 0
Plant response rating, Ragweed (ragweed; [6]): 0
Plant response rating, Ragweed (ragweed; [7]): 0
Ragweed plant response rating (ragweed; [8]): 0
Plant response rating, Sedge, Umbrella (sedge, umbrella): 0
Plant response rating, Kochia (kochia; [5]): 0
Plant response rating, Kochia (kochia; [6]): 0
Plant response rating, Kochia (kochia; [7]): 0
Kochia plant response rating (kochia; [8]): 0
Plant response rating, Barnyardgrass (barnyardgrass [2]; [5]): 60
Plant response rating, Barnyardgrass (barnyardgrass [2]; [6]): 80
Plant response rating, Barnyardgrass (barnyardgrass [2]; [7]): 70
Barnyardgrass plant response rating (barnyardgrass [2]; [8]): 80
Plant response rating, Foxtail, Giant (giant foxtail; [5]): 60
Plant response rating, Foxtail, Giant (giant foxtail; [6]): 70
Plant response rating, Foxtail, Giant (giant foxtail; [7]): 80
Foxtail, Giant plant response rating (giant foxtail; [8]): 90
Plant response rating, Galium (galium; [3]): 0
Plant response rating, Galium (galium; [4]): 0

O=C1NCC(c2cccc(C(F)(F)F)c2)C1C(=O)Nc1cc(F)ccc1F (stereo not drawn) [Compound 314]
Plant response rating, Barnyardgrass (barnyardgrass [1]): 25
Plant response rating, Ducksalad (ducksalad): 40
Plant response rating, Blackgrass (blackgrass; [3]): 0
Plant response rating, Blackgrass (blackgrass; [4]): 0
Plant response rating, Rice (rice): 15
Plant response rating, Wheat (wheat; [3]): 0
Plant response rating, Wheat (wheat; [4]): 0
Plant response rating, Corn (corn; [3]): 0
Plant response rating, Corn (corn; [4]): 0
Plant response rating, Pigweed (pigweed; [5]): 0
Plant response rating, Pigweed (pigweed; [6]): 0
Plant response rating, Pigweed (pigweed; [7]): 0
Pigweed plant response rating (pigweed; [8]): 0
Plant response rating, Ryegrass, Italian (ryegrass, Italian; [5]): 0
Plant response rating, Ryegrass, Italian (ryegrass, Italian; [6]): 0
Plant response rating, Ryegrass, Italian (ryegrass, Italian; [7]): 0
Ryegrass, Italian plant response rating (ryegrass, Italian; [8]): 0
Plant response rating, Ragweed (ragweed; [5]): 0
Plant response rating, Ragweed (ragweed; [6]): 0
Plant response rating, Ragweed (ragweed; [7]): 0
Ragweed plant response rating (ragweed; [8]): 0
Plant response rating, Sedge, Umbrella (sedge, umbrella): 0
Plant response rating, Kochia (kochia; [5]): 0
Plant response rating, Kochia (kochia; [6]): 0
Plant response rating, Kochia (kochia; [7]): 0
Kochia plant response rating (kochia; [8]): 0
Plant response rating, Barnyardgrass (barnyardgrass [2]; [5]): 30
Plant response rating, Barnyardgrass (barnyardgrass [2]; [6]): 80
Plant response rating, Barnyardgrass (barnyardgrass [2]; [7]): 20
Barnyardgrass plant response rating (barnyardgrass [2]; [8]): 80
Plant response rating, Foxtail, Giant (giant foxtail; [5]): 60
Plant response rating, Foxtail, Giant (giant foxtail; [6]): 80
Plant response rating, Foxtail, Giant (giant foxtail; [7]): 30
Foxtail, Giant plant response rating (giant foxtail; [8]): 90
Plant response rating, Galium (galium; [3]): 0
Plant response rating, Galium (galium; [4]): 0

CC(C)c1cccc(C2CNC(=O)C2C(=O)Nc2ccccc2C(F)(F)F)c1 (stereo not drawn) [Compound 320]
Plant response rating, Barnyardgrass (barnyardgrass [1]): 45
Plant response rating, Ducksalad (ducksalad): 100
Plant response rating, Blackgrass (blackgrass; [3]): 0
Plant response rating, Blackgrass (blackgrass; [4]): 20
Plant response rating, Rice (rice): 0
Plant response rating, Wheat (wheat; [3]): 0
Plant response rating, Wheat (wheat; [4]): 0
Plant response rating, Corn (corn; [3]): 0
Plant response rating, Corn (corn; [4]): 0
Plant response rating, Pigweed (pigweed; [5]): 0
Plant response rating, Pigweed (pigweed; [6]): 0
Plant response rating, Pigweed (pigweed; [7]): 0
Pigweed plant response rating (pigweed; [8]): 0
Plant response rating, Ryegrass, Italian (ryegrass, Italian; [5]): 0
Plant response rating, Ryegrass, Italian (ryegrass, Italian; [6]): 30
Plant response rating, Ryegrass, Italian (ryegrass, Italian; [7]): 20
Ryegrass, Italian plant response rating (ryegrass, Italian; [8]): 50
Plant response rating, Ragweed (ragweed; [5]): 0
Plant response rating, Ragweed (ragweed; [6]): 30
Plant response rating, Ragweed (ragweed; [7]): 0
Ragweed plant response rating (ragweed; [8]): 30
Plant response rating, Sedge, Umbrella (sedge, umbrella): 0
Plant response rating, Kochia (kochia; [5]): 20
Plant response rating, Kochia (kochia; [6]): 20
Plant response rating, Kochia (kochia; [7]): 0
Kochia plant response rating (kochia; [8]): 20
Plant response rating, Barnyardgrass (barnyardgrass [2]; [5]): 50
Plant response rating, Barnyardgrass (barnyardgrass [2]; [6]): 90
Plant response rating, Barnyardgrass (barnyardgrass [2]; [7]): 20
Barnyardgrass plant response rating (barnyardgrass [2]; [8]): 80
Plant response rating, Foxtail, Giant (giant foxtail; [5]): 30
Plant response rating, Foxtail, Giant (giant foxtail; [6]): 70
Plant response rating, Foxtail, Giant (giant foxtail; [7]): 30
Foxtail, Giant plant response rating (giant foxtail; [8]): 90
Plant response rating, Galium (galium; [3]): 0
Plant response rating, Galium (galium; [4]): 0
